Reference: ChEMBL document CHEMBL1201862, “PubChem BioAssay data set” (2004)
“And” between values parts separate entries of the source, which are not always exact repeats. Equal values may be shown once.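 Step 1: Grow cells in 96-well plates. Step 2: Expose to compound for 48 hours at 5 concentrations. Step 3: Interpolate endpoints linearly; if unreached, use highest concentration. GI50: concentration for 50% inhibition of growth.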 The source made the active and inactive calls. Rule as the data show it: active = GI50 up to about 1.1 µM and inactive = higher.

Experiments:
Test in all cases: NCI tumour cell line growth inhibition, 48 h
BT-549 = system: BT-549
EKVX = system: EKVX
HT-29 = system: HT-29
IGROV-1 = system: IGROV-1
K562 = system: K562
LOX IMVI = system: LOX IMVI
MCF7 = system: MCF7
MOLT-4 = system: MOLT-4
NCI-H522 = system: NCI-H522
NCI/ADR-RES = system: NCI/ADR-RES
OVCAR-5 = system: OVCAR-5
RXF 393 = system: RXF 393
SF-295 = system: SF-295
SF-539 = system: SF-539
SNB-75 = system: SNB-75
SW-620 = system: SW-620
U-251 = system: U-251
UACC-257 = system: UACC-257
CCRF-CEM = system: CCRF-CEM
PC-3 = system: PC-3

Row | SMILES | GI50 (BT-549) | GI50 (EKVX) | GI50 (HT-29) | GI50 (IGROV-1) | GI50 (K562) | GI50 (LOX IMVI) | GI50 (MCF7) | GI50 (MOLT-4) | GI50 (NCI-H522) | GI50 (NCI/ADR-RES) | GI50 (OVCAR-5) | GI50 (RXF 393) | GI50 (SF-295) | GI50 (SF-539) | GI50 (SNB-75) | GI50 (SW-620) | GI50 (U-251) | GI50 (UACC-257) | GI50 (CCRF-CEM) | GI50 (PC-3)
1 | ON(CCc1ccncc1)Cc1ccccc1 | > 100 µM (inactive) | > 100 µM (inactive) | > 100 µM (inactive) | > 100 µM (inactive) | > 100 µM (inactive) | > 100 µM (inactive) | > 100 µM (inactive) | > 100 µM (inactive) | > 100 µM (inactive) | > 100 µM (inactive) | > 100 µM (inactive) | > 100 µM (inactive) | > 100 µM (inactive) | > 100 µM (inactive) | > 100 µM (inactive) | > 100 µM (inactive) |  |  |  | 
2 | CCOc1cc2c(cc1O)/C(=N\O)C[C@@H]1[C@@H]2CC[C@]2(C)[C@@H](O)CC[C@@H]12 | 0.0371 µM (active) | 55.2 µM (inactive) | 6.71 µM (inactive) | 0.628 µM (active) | < 0.0173 µM (active) | < 0.0363 µM (active) | < 0.0195 µM (active) | < 0.023 µM (active) | < 0.0182 µM (active) | < 0.0276 µM (active) | 5.85 µM (inactive) |  |  | 0.00256 µM (active) | < 0.01 µM (active) |  | 0.018 µM (active) | 33.3 µM (inactive) |  | 
3 | COc1ccc(NC(=O)C2=C(SC)C(=O)N=C2N)cc1 | > 100 µM (inactive) | > 100 µM (inactive) | > 100 µM (inactive) | 61.7 µM (inactive) | > 100 µM (inactive) | > 100 µM (inactive) |  | > 100 µM (inactive) |  | > 100 µM (inactive) |  | > 100 µM (inactive) | > 100 µM (inactive) |  | > 100 µM (inactive) | > 100 µM (inactive) | > 100 µM (inactive) | > 100 µM (inactive) | > 100 µM (inactive) | > 100 µM (inactive)
4 | O=C(O)C(Cc1ccccc1)NCc1c(O)ccc2c(-c3ccccc3)cc(=O)oc12 (stereo unspecified) |  | > 100 µM (inactive) | > 100 µM (inactive) | > 100 µM (inactive) | > 100 µM (inactive) | > 100 µM (inactive) | > 100 µM (inactive) | > 100 µM (inactive) | > 100 µM (inactive) | > 100 µM (inactive) | > 100 µM (inactive) | > 100 µM (inactive) | > 100 µM (inactive) | > 100 µM (inactive) | > 100 µM (inactive) | > 100 µM (inactive) | > 100 µM (inactive) | > 100 µM (inactive) | > 100 µM (inactive) | > 100 µM (inactive)
5 | Cc1ccc(O)c(-c2cscn2)c1 | 74.5 µM (inactive) | 32.2 µM (inactive) | 62.5 µM (inactive) | 55.7 µM (inactive) | 52 µM (inactive) | 27.7 µM (inactive) | 39.9 µM (inactive) | 35.1 µM (inactive) |  | 51.9 µM (inactive) | 11.2 µM (inactive) |  | 40 µM (inactive) | 30.8 µM (inactive) |  | 51.5 µM (inactive) |  | 73.1 µM (inactive) | 0.37 µM (active) | 39.8 µM (inactive)
6 | O=P1(O)c2ccccc2CCc2ccccc21 | 80.7 µM (inactive) | > 100 µM (inactive) |  | > 100 µM (inactive) | > 100 µM (inactive) | > 100 µM (inactive) | > 100 µM (inactive) | > 100 µM (inactive) | > 100 µM (inactive) |  |  | > 100 µM (inactive) | > 100 µM (inactive) | > 100 µM (inactive) | > 100 µM (inactive) | > 100 µM (inactive) |  | > 100 µM (inactive) | > 100 µM (inactive) | > 100 µM (inactive)
7 | COC(=O)Cc1c(-c2c(CC(=O)OC)c3ccccc3n2C2OC(COC3OC(COC(C)=O)C(OC(C)=O)C(OC(C)=O)C3OC(C)=O)C(O)C(O)C2O)[nH]c2ccccc12 (stereo unspecified) | 44.7 µM (inactive) | > 100 µM (inactive) | > 100 µM (inactive) | 75.3 µM (inactive) | > 100 µM (inactive) | > 100 µM (inactive) | > 100 µM (inactive) | > 100 µM (inactive) |  |  | > 100 µM (inactive) |  | 36.6 µM (inactive) | 51.5 µM (inactive) |  | > 100 µM (inactive) | 44.3 µM (inactive) | > 100 µM (inactive) | > 100 µM (inactive) | > 100 µM (inactive)
8 | C=C(C)C1CC[C@@](C)(O)[C@H](C#N)C1 (stereo partly specified) | > 100 µM (inactive) | > 100 µM (inactive) | > 100 µM (inactive) |  | > 100 µM (inactive) | > 100 µM (inactive) | > 100 µM (inactive) | > 100 µM (inactive) | > 100 µM (inactive) |  | > 100 µM (inactive) | > 100 µM (inactive) | > 100 µM (inactive) | > 100 µM (inactive) | 44.5 µM (inactive) | > 100 µM (inactive) | > 100 µM (inactive) | > 100 µM (inactive) | > 100 µM (inactive) | 71 µM (inactive)
9 | CN(C)C12C=CC=CC3=C(c4ccccc4)C(c4ccccc4)=C(c4ccccc4)C31c1ccccc1C2 (stereo unspecified) |  | > 100 µM (inactive) | > 100 µM (inactive) | > 100 µM (inactive) | > 100 µM (inactive) |  | > 100 µM (inactive) | > 100 µM (inactive) | > 100 µM (inactive) | > 100 µM (inactive) | > 100 µM (inactive) |  | > 100 µM (inactive) | > 100 µM (inactive) | > 100 µM (inactive) | > 100 µM (inactive) | > 100 µM (inactive) | > 100 µM (inactive) | > 100 µM (inactive) | > 100 µM (inactive)
10 | COc1ccc(/N=C2\C(=N/c3ccc(OC)cc3)N(c3ccc(N(C)C)cc3)C(=S)N2c2ccc(OC)cc2)cc1 | > 100 µM (inactive) | > 100 µM (inactive) | > 100 µM (inactive) | > 100 µM (inactive) | > 100 µM (inactive) | > 100 µM (inactive) | > 100 µM (inactive) | 0.0329 µM (active) | > 100 µM (inactive) | > 100 µM (inactive) | > 100 µM (inactive) | 0.0378 µM (active) | 0.0518 µM (active) | 0.184 µM (active) |  | > 100 µM (inactive) |  | > 38 µM (inactive) | > 100 µM (inactive) | > 100 µM (inactive)
11 | COc1ccc(S(=O)(=O)Nc2ccc(-c3csc(N4C(=O)/C(=C/c5cccs5)N=C4c4ccccc4)n3)cc2)cc1Cl |  |  | > 100 µM (inactive) | 30.5 µM (inactive) | 38.7 µM (inactive) | 37 µM (inactive) | 46.9 µM (inactive) | 32.8 µM (inactive) | 22.3 µM (inactive) | 39.4 µM (inactive) | > 100 µM (inactive) | 29.5 µM (inactive) | 10.4 µM (inactive) | 54.2 µM (inactive) | 44.8 µM (inactive) | 50.9 µM (inactive) | 34.9 µM (inactive) | 46.3 µM (inactive) |  | 34.8 µM (inactive)
12 | CCOC(=O)C(C)(C(=O)OCC)/C(Cl)=C\Cl |  | > 100 µM (inactive) | > 100 µM (inactive) | > 100 µM (inactive) | > 100 µM (inactive) | > 100 µM (inactive) | 84.7 µM (inactive) | > 100 µM (inactive) | > 100 µM (inactive) | > 100 µM (inactive) | > 100 µM (inactive) | > 100 µM (inactive) | > 100 µM (inactive) | > 100 µM (inactive) | 66.1 µM (inactive) | > 100 µM (inactive) |  | > 100 µM (inactive) | > 100 µM (inactive) | > 100 µM (inactive)
13 | COc1ccc(OC)c(/C=C/[N+](=O)[O-])c1 | 3.67 µM (inactive) |  | 3.47 µM (inactive) and 2.49 µM (inactive) |  | 2.59 µM (inactive) and 2.83 µM (inactive) | 1.84 µM (inactive) and 948 nM (active) | 2.32 µM (inactive) |  | 1.63 µM (inactive) and 1.16 µM (inactive) | 2.96 µM (inactive) |  | 1.12 µM (inactive) and 2.05 µM (inactive) | 5.24 µM (inactive) and 3.46 µM (inactive) | 3.6 µM (inactive) and 2.89 µM (inactive) | 6.64 µM (inactive) and 4.62 µM (inactive) | 3 µM (inactive) and 2.2 µM (inactive) | 2.56 µM (inactive) and 3.76 µM (inactive) | 4.1 µM (inactive) and 3.92 µM (inactive) | 1.01 µM (active) and 1.58 µM (inactive) | 
14 | COc1cc(Oc2nc3ccccc3nc2C(=O)O)cc(OC)c1OC | > 100 µM (inactive) | > 100 µM (inactive) | > 100 µM (inactive) | > 100 µM (inactive) | > 100 µM (inactive) | > 100 µM (inactive) |  | > 100 µM (inactive) | > 100 µM (inactive) | > 100 µM (inactive) | > 100 µM (inactive) | > 100 µM (inactive) | > 100 µM (inactive) |  | > 100 µM (inactive) | > 100 µM (inactive) | > 100 µM (inactive) | > 100 µM (inactive) | > 100 µM (inactive) | > 100 µM (inactive)
15 | COc1c(O)cc(/C=C/c2cc(O)cc3c2[C@@]2(C(=O)O3)c3c(O)cc(O)cc3OC2c2cccc(O)c2)cc1O (stereo partly specified) | 23.7 µM (inactive) |  | 30.5 µM (inactive) | 16.2 µM (inactive) | 65.3 µM (inactive) | 43.7 µM (inactive) | 48.6 µM (inactive) | 1.3 µM (inactive) | 34.8 µM (inactive) | 26.4 µM (inactive) |  | 52.2 µM (inactive) |  | 39.4 µM (inactive) |  | 44.2 µM (inactive) | 41.4 µM (inactive) | > 100 µM (inactive) | 30.5 µM (inactive) | 51.8 µM (inactive)
